# Where two headings read alike, the source gives them in different places.
# Columns and labels:
# CYP3A4 = conditions: for AUCinf, Geometric LSM / AUClast, Geometric LSM / Cmax, Geometric LSM: 1’-hydroxymidazolam
# [1] = Adverse events, DDI evaluation period; assay type: in vivo, human (patients with solid tumors)
# CYP2C8 = target: T1, CYP2C8 (Homo sapiens, UniProt P10632); experiment: Clinical DDI: pioglitazone plasma PK with and without TAS-115; conditions: oral, 15 mg
# T1 sequence (P10632 1-490): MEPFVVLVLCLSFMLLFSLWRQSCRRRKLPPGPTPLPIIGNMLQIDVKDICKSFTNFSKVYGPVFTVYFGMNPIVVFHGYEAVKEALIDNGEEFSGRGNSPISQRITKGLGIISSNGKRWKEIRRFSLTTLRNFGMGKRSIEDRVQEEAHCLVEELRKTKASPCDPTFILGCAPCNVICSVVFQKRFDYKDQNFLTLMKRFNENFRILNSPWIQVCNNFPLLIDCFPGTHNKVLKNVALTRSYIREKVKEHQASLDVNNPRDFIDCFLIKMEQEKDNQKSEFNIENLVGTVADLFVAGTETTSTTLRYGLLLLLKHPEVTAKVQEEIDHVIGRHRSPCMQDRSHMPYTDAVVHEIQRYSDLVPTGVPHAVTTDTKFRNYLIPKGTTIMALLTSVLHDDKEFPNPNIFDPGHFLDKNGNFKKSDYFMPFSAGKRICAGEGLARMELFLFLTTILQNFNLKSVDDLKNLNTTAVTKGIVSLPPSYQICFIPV
# CYP2C9 = CYP2C9 (Homo sapiens, UniProt P11712); experiment: clinical; conditions: plasma, oral, 25 mg
# [2] = After Administration of TAS-115, DDI period (N=18)
# [3] = Before Administration of TAS-115 (N=18)
# [4] = Entire DDI Evaluation Period (N=18)
# [5] = midazolam 2.5 mg alone (Day −2)
# [6] = midazolam 2.5 mg with TAS-115 250 mg once daily (Day 5)
# CYP2C9, sequence (P11712 whole entry): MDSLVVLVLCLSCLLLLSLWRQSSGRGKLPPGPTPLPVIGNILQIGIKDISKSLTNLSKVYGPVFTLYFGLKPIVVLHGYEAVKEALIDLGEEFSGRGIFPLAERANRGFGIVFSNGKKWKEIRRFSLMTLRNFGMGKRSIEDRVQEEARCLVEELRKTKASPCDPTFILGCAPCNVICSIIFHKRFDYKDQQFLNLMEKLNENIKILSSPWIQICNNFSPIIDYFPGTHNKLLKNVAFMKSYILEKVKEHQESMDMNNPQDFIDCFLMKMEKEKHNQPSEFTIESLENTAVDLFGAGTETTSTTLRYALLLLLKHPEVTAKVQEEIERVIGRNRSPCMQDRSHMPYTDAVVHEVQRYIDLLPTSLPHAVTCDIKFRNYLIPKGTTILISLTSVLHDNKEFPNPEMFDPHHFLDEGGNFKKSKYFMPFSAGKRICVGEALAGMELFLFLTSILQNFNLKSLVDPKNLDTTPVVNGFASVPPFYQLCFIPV
structure (smiles),measurement,setting,value
"Cc1ncc2n1-c1ccc(Cl)cc1C(c1ccccc1F)=NC2 [Midazolam, midazolam, reference compound]",AUC(0-inf),"CYP3A4; human, plasma, oral, 2.5 mg",56.8 ng·h/mL
same,AUC(0-t),"CYP3A4; human, plasma, oral, 2.5 mg",55.5 ng·h/mL
same,Cmax,"CYP3A4; human, plasma, oral, 2.5 mg",21.9 ng/mL
same,Any >=Grade 3 TRAEs Related to Midazolam,[1]; [2],0 (0.0) N (%)
same,Any TRAEs Related to Midazolam,[1]; [2],0 (0.0) N (%)
same,Any >=Grade 3 TRAEs Related to Midazolam,[1]; [3],0 (0.0) N (%)
same,Any TRAEs Related to Midazolam,[1]; [3],0 (0.0) N (%)
same,Any >=Grade 3 TRAEs Related to Midazolam,[1]; [4],0 (0.0) N (%)
same,Any TRAEs Related to Midazolam,[1]; [4],0 (0.0) N (%)
"CCc1ccc(CCOc2ccc(CC3SC(=O)NC3=O)cc2)nc1 (centres unmarked) [Pioglitazone, pioglitazone, reference compound]",Any >=Grade 3 TRAEs Related to Pioglitazone,[1]; [2],0 (0.0) N (%)
same,Any TRAEs Related to Pioglitazone,[1]; [2],0 (0.0) N (%)
same,Any >=Grade 3 TRAEs Related to Pioglitazone,[1]; [3],0 (0.0) N (%)
same,Any TRAEs Related to Pioglitazone,[1]; [3],1 (5.6) N (%)
same,TRAE (Grade 1 diarrhoea) related to pioglitazone,"[1]; DDI evaluation period, pioglitazone administered before TAS-115",one patient
same,Any >=Grade 3 TRAEs Related to Pioglitazone,[1]; [4],0 (0.0) N (%)
same,Any TRAEs Related to Pioglitazone,[1]; [4],1 (5.6) N (%)
same,AUC(0-inf),CYP2C8,7710 ng·h/mL
same,AUC(0-t),CYP2C8,6340 ng·h/mL
same,Cmax,CYP2C8,635 ng/mL
"OCc1ncc2n1-c1ccc(Cl)cc1C(c1ccccc1F)=NC2 [1’-Hydroxymidazolam, 1’-hydroxymidazolam]","AUCinf, Geometric LSM",CYP3A4; [5],19.92 ng·h/mL
same,"AUClast, Geometric LSM",CYP3A4; [5],19.33 ng·h/mL
same,"Cmax, Geometric LSM",CYP3A4; [5],8.195 ng/mL
same,"AUCinf, Geometric LSM",CYP3A4; [6],20.86 ng·h/mL
same,"AUClast, Geometric LSM",CYP3A4; [6],20.13 ng·h/mL
same,"Cmax, Geometric LSM",CYP3A4; [6],8.391 ng/mL
"CCCCc1nc(Cl)c(CO)n1Cc1ccc(-c2ccccc2-c2nn[nH]n2)cc1 [Losartan, losartan, reference compound]",AUC(0-inf),CYP2C9,388 ng·h/mL
same,AUC(0-t),CYP2C9,364 ng·h/mL
same,Cmax,CYP2C9,158 ng/mL
same,Any >=Grade 3 TRAEs Related to Losartan,[1]; [2],0 (0.0) N (%)
same,Any TRAEs Related to Losartan,[1]; [2],1 (5.6) N (%)
same,Any >=Grade 3 TRAEs Related to Losartan,[1]; [3],0 (0.0) N (%)
same,Any TRAEs Related to Losartan,[1]; [3],0 (0.0) N (%)
same,TRAE (Grade 1 hypotension) related to losartan,"[1]; DDI evaluation period, losartan administered after TAS-115",one patient
same,Any >=Grade 3 TRAEs Related to Losartan,[1]; [4],0 (0.0) N (%)
same,Any TRAEs Related to Losartan,[1]; [4],1 (5.6) N (%)

# Reference: paper PMC12823633 (Cancer Chemotherapy and Pharmacology, 2026)
